Each structure is given as a SMILES string.

Usually logP stands for the decadic logarithm of the partition coefficient of the neutral form, usually between octanol and water. A high value points to a more lipophilic compound. Consider `O=C(Nc1ccc2nn(C3CCCCC3)nc2c1)c1ccc(Cl)c(Cl)c1`, for which the logP is 5.85.

The compound `O=C(Nc1ccc2nn(C3CCCCC3)nc2c1)c1ccc([N+](=O)[O-])cc1` had a logP of 4.57.

Take `O=C(Nc1ccc2nn(C3CCCCC3)nc2c1)c1ccccc1`: the logP came to 4.45.

Consider `COc1cc(C(=O)Nc2ccc3nn(C)nc3c2)cc(OC)c1OC`, for which the logP came to 2.38.

Compound `O=C(Nc1ccc2nn(C3CCCCC3)nc2c1)C(Cl)Cl` came in with a logP of 3.87.

The compound `Cn1nc2ccc(NC(=O)c3ccc(Cl)cc3)cc2n1` came in with a logP of 3.13.

For `COc1cc(C(=O)Nc2ccc3nn(C4CCCCC4)nc3c2)cc(OC)c1OC`, the logP worked out at 4.45.

In turn, `Cn1nc2ccc(NC(=O)c3ccc([N+](=O)[O-])cc3)cc2n1` gave a logP of 2.53.

Compound `Cn1nc2ccc(NC(=O)CCl)cc2n1` displayed a logP of 1.22.

Regarding `COc1ccc(C(=O)Nc2ccc3nn(C4CCCC4)nc3c2)cc1`, the logP is 4.03.

Regarding `Cn1nc2ccc(NC(=O)c3ccccc3)cc2n1`, the logP was 2.44.

Values taken from the OPERA property sets (Mansouri et al. 2018).
